These results are taken from ChEMBL document CHEMBL4402613, “Targeting ALK2: An Open Science Approach to Developing Therapeutics for the Treatment of Diffuse Intrinsic Pontine Glioma” (J Med Chem, 2020).

In data set [1] the target is T1, TGF-beta receptor type-1 (Homo sapiens, UniProt P36897).
T1 sequence (P36897 whole entry): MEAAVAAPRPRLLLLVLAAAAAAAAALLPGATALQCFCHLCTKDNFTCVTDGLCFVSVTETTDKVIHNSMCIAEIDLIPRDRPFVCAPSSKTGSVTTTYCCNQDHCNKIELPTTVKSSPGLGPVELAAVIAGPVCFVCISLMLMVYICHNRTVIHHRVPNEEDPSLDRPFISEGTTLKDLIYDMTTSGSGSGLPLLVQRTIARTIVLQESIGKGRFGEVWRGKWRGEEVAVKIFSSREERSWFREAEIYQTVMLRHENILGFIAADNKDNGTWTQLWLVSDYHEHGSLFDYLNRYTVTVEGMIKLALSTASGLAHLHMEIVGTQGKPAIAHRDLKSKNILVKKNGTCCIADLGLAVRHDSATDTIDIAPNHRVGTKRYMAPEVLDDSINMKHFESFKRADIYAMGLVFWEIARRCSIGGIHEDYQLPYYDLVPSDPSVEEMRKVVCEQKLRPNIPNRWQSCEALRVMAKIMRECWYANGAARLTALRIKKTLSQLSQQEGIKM
It is filed as single protein.
Description: Inhibition of human ALK5 using casein as substrate in presence of 10 uM [gamma33P] ATP by radioactive assay

The target of data set [2] is T2, Activin receptor type-1 (Homo sapiens, UniProt Q04771).
T2 sequence (Q04771 whole entry): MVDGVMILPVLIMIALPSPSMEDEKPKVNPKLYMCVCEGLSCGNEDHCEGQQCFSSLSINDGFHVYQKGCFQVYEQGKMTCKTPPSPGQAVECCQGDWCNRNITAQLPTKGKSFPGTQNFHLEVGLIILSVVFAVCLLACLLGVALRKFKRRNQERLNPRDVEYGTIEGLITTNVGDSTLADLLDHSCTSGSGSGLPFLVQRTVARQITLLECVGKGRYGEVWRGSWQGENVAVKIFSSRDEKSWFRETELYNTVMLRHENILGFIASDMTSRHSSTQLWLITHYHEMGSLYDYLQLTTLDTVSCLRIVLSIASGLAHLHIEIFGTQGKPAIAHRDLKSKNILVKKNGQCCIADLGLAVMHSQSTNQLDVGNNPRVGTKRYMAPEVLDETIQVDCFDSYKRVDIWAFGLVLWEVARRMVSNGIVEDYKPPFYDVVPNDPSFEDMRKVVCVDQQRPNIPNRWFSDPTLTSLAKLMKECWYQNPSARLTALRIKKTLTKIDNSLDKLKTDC
Briefly: Inhibition of C-terminal nanoluciferase-fused ALK2 (unknown origin) expressed in HEK293 cells incubated for 2 hrs followed by NanoBRET NanoGlo Substrate addition by NanoBRET assay. Format: cell-based. A general note: In BRET a luciferase serves as donor, and the signal depends on an acceptor being close.

The target of data set [3] is Bone morphogenetic protein receptor type-1A (Homo sapiens) (UniProt P36894). Put plainly: Inhibition of ALK3 (unknown origin) at 1 uM.
In data set [4] the target is T3, Serine/threonine-protein kinase A-Raf (Homo sapiens) (UniProt P10398).
T3 sequence (whole entry): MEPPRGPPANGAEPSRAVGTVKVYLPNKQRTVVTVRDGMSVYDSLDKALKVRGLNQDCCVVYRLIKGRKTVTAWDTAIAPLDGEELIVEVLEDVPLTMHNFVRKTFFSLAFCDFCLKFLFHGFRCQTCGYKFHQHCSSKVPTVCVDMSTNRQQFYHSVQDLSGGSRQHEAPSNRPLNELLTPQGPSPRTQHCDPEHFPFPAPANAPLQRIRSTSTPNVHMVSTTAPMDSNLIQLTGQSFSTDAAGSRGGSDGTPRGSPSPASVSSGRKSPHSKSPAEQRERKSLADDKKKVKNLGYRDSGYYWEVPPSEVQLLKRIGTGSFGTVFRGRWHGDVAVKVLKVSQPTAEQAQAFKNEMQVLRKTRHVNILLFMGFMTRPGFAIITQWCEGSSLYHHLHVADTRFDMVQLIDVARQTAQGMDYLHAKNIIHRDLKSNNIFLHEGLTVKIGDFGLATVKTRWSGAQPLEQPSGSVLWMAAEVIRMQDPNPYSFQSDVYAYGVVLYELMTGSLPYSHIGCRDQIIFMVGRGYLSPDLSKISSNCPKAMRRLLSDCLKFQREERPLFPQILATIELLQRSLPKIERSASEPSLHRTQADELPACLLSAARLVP
Put plainly: Inhibition of ARAF (unknown origin) at 1 uM.

The target in data set [5] is Misshapen-like kinase 1 (Homo sapiens) (UniProt Q8N4C8). Briefly: Inhibition of MINK (unknown origin) at 1 uM.
Data set [6] concerns the target T4, Non-receptor tyrosine-protein kinase TNK1 (Homo sapiens) (UniProt Q13470).
T4 sequence (whole entry): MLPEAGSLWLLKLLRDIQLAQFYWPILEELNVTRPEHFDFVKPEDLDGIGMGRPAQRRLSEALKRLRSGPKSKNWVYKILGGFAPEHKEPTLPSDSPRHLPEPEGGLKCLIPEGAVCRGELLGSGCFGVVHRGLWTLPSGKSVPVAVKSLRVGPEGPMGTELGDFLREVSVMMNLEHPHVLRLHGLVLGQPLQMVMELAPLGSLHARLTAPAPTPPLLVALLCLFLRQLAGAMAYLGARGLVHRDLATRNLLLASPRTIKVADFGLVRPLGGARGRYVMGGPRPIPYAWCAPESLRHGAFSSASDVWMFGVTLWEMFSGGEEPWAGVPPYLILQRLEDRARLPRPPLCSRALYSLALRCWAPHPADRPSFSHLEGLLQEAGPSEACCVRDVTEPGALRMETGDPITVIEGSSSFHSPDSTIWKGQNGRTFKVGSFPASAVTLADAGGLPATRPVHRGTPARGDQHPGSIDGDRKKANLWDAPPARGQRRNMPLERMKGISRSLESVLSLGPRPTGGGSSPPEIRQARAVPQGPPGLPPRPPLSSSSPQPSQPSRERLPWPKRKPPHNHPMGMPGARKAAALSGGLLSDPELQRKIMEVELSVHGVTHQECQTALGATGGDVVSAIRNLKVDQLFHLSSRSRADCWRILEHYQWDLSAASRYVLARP
Put plainly: Inhibition of TNK1 (unknown origin) at 1 uM.

Data set [7] concerns the target Activin receptor type-1 (Homo sapiens, UniProt Q04771, G328V). Briefly: Inhibition of ALK2 G328V mutant (unknown origin).
Data set [8] addresses Activin receptor type-1 (Homo sapiens, UniProt Q04771, R206H). Briefly: Inhibition of human ALK2 R206H mutant using casein as substrate in presence of 10 uM [gamma33P] ATP by radioactive assay.
Data set [9] deals with Activin receptor type-1 (Homo sapiens, UniProt Q04771, R258G). Briefly: Inhibition of ALK2 R258G mutant (unknown origin).
For data set [10] the following is noted: mouse, in vivo, po, 10 mg/kg, 24 h.
The conditions of data set [11]: mouse, in vivo, po, 10 mg/kg, 24 h. The source holds these as a separate data set.
For data set [12] the following is noted: mouse, in vivo, po, 10 mg/kg, 24 h. This is another data set of the same source.
Description: Half life in CB17 SCID mouse at 10 mg/kg, po measured up to 24 hrs by LC-MS/MS analysis
The conditions of data set [13]: mouse, brain, po, 100 mg/kg, 4 h.
Description: Ratio of total drug concentration from brain to plasma in CB17 SCID mouse at 100 mg/kg, po measured after 4 hrs
Data set [14] in a line: in vitro. Conditions: human, Caco-2.
Description: Apparent permeability across apical to basolateral membrane in human Caco2 cells at 5 uM incubated for 120 mins in orbital shaker by LC-QTOF/MS analysis

Activity calls are given as the source filed them. The calls are words filed in the database; no cut-off is given here.

Chain of Activin receptor type-1 (Homo sapiens, UniProt Q04771, G328V) (Q04771 21-509 G328V limits assumed): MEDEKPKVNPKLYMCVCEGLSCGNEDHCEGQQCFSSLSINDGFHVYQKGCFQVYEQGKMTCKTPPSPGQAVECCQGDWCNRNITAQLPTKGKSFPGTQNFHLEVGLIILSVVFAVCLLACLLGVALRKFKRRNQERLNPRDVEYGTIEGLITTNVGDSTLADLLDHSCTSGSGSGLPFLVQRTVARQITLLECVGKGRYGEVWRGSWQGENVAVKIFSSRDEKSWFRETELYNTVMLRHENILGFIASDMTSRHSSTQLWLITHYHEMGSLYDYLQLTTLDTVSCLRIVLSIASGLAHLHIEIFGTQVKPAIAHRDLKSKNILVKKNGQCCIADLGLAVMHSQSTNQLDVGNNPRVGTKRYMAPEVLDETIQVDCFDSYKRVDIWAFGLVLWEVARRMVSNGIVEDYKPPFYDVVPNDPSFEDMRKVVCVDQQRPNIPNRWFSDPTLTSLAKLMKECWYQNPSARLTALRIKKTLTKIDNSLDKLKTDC
Chain of Activin receptor type-1 (Homo sapiens, UniProt Q04771, R206H) (Q04771 21-509 R206H limits assumed): as the sequence (Q04771 21-509 G328V limits assumed) above, with R186H, V308G counted along it
Chain of Bone morphogenetic protein receptor type-1A (Homo sapiens) (P36894 whole entry): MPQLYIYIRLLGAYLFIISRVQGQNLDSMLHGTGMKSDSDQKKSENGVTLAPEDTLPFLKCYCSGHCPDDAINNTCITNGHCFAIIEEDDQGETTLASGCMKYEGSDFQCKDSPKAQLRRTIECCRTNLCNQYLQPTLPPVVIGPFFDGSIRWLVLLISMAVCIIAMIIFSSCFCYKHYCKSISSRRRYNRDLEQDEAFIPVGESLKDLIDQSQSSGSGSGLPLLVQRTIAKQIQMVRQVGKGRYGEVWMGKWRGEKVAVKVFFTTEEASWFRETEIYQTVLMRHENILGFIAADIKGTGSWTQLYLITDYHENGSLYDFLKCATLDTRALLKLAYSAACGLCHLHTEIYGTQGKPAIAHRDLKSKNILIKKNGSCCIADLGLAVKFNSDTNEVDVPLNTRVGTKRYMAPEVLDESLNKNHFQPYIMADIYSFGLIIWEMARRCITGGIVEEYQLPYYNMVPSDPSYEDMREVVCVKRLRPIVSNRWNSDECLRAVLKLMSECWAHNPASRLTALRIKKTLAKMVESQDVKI
Chain of Activin receptor type-1 (Homo sapiens, UniProt Q04771, R258G) (Q04771 21-509 R258G limits assumed): as the sequence (Q04771 21-509 G328V limits assumed) above, with R238G, V308G counted along it
Chain of Misshapen-like kinase 1 (Homo sapiens) (Q8N4C8 whole entry, looked up): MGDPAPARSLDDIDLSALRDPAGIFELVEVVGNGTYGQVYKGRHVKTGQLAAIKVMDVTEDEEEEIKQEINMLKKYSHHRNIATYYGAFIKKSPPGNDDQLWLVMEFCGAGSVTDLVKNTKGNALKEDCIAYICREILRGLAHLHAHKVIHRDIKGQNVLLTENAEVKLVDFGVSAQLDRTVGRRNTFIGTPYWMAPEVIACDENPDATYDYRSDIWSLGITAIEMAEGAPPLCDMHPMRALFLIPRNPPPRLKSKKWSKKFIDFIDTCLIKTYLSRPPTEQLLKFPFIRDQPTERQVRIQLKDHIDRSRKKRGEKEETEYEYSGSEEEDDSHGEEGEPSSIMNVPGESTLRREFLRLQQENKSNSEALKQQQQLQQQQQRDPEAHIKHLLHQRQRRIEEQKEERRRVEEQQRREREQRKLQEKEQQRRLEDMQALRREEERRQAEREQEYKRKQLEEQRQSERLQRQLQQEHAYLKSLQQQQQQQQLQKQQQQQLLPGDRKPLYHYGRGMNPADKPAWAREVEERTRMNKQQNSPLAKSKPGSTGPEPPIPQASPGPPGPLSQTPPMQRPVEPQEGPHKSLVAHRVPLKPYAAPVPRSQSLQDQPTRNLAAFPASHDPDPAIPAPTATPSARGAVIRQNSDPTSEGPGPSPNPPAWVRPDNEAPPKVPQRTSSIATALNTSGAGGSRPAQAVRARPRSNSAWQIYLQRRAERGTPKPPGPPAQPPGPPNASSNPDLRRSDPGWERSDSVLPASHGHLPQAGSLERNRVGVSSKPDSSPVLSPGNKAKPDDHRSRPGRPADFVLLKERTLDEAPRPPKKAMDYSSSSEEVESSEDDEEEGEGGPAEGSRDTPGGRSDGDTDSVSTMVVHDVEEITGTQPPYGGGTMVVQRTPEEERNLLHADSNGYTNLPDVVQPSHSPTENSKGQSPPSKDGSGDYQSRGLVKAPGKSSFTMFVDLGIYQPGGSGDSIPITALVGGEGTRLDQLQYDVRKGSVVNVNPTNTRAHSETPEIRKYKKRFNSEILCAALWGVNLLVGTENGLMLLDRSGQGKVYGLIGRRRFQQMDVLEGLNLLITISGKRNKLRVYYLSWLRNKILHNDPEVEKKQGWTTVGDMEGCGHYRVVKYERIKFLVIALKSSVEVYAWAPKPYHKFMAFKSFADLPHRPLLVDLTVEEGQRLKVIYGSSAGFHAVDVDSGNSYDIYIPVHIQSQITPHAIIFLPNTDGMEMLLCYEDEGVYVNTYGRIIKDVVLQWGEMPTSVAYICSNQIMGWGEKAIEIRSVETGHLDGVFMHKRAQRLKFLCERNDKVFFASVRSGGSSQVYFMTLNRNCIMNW

As a reminder, the IC50 is the concentration that gives 50% inhibition. The term Cmax denotes the highest concentration seen after dosing. A word on the AUC: it is concentration integrated over time. A higher AUC goes with high exposure. One may read the Papp A→B as the apparent permeability from the apical to the basolateral side of a cell layer. `COc1cc(-c2cncc(-c3ccc(N4CCN(C)CC4)cc3)c2C)cc(F)c1C(N)=O`: the IC50 was determined as 1050 nM in data set [1]; 93 nM in [2]; 16 nM in data set [7]; 19 nM in [8]; 17 nM in data set [9]. Besides, the inhibition entry in data set [3], in [4], in data set [5] and in data set [6] was “Active” each time. The molecule also had a Cmax in [10] of 2140 ng/mL. Also, the AUC in data set [11] is 4056 ng·h/mL. Also, the t1/2 in [12] was 2.56 h. In data set [13], this molecule showed a BPR of 0.178. Further, in [14], the Papp A→B at 2 h, 5 µM was found to be 5.5 ×10⁻⁶ cm/s.
